Test results taken from ChEMBL document CHEMBL1139768, “The discovery of potent, selective, and orally bioavailable hNK1 antagonists derived from pyrrolidine” (Bioorg Med Chem Lett, 2007).

Columns and labels:
Substance-P receptor [1] = target: T1, Substance-P receptor (Homo sapiens, UniProt P25103); experiment: Displacement of [125I]-SP from human NK1 receptor expressed in CHO cells
Gerbillinae [2] = experiment: Inhibition of GR-73632-induced foot tapping in gerbils at 6 mg/kg, iv after 24 hrs; format: functional
Gerbillinae [3] = experiment: Inhibition of GR-73632-induced foot tapping in gerbils at 3 mg/kg, iv after 24 hrs; format: functional; settings: for inhibition in vivo at 3 mg/kg: Gerbillinae, iv, 24 h
Gerbillinae [4] = experiment: Inhibition of GR-73632-induced foot tapping in iv dosed gerbils; format: functional; settings: Gerbillinae, iv; read-out: ID50 (the source's name)
Gerbillinae [5] = experiment: Inhibition of GR-73632-induced foot tapping in iv dosed gerbils after 24 hrs; format: functional; settings: Gerbillinae, iv, 24 h; read-out: ID50 (the source's name)
Gerbillinae [6] = experiment: Inhibition of GR-73632-induced foot tapping in gerbils at 1 mg/kg, iv; format: functional
Substance-P receptor [7] = target: T1, Substance-P receptor; experiment: Displacement of [125I]-SP from human NK1 receptor expressed in CHO cells at 100 nM

T1 sequence (P25103 whole entry): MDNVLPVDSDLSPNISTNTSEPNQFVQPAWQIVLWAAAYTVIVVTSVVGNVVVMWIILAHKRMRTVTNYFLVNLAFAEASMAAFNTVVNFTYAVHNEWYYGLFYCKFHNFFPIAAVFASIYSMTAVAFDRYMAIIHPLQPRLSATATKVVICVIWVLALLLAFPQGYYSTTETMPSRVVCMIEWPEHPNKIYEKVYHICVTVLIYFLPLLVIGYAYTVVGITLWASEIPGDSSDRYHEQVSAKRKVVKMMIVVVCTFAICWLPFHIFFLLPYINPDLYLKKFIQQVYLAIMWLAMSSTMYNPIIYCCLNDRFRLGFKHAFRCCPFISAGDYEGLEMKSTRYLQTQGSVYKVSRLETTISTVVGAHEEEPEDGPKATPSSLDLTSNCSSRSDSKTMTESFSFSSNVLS

| SMILES | IC50 (Substance-P receptor [1]) | inhibition in vivo at 6 mg/kg (Gerbillinae [2]) | inhibition in vivo at 3 mg/kg (Gerbillinae [3]) | also measured |
| --- | --- | --- | --- | --- |
| C[C@@H](O[C@@H]1CN(C=O)C[C@H]1c1ccc(F)cc1)c1cc(C(F)(F)F)cc(C(F)(F)F)c1 | 0.24 nM |  |  |  |
| CC(C)C(=O)N1C[C@@H](O[C@H](C)c2cc(C(F)(F)F)cc(C(F)(F)F)c2)[C@H](c2ccc(F)cc2)C1 | 0.15 nM | 43% |  |  |
| CC1=C(N2C[C@@H](O[C@H](C)c3cc(C(F)(F)F)cc(C(F)(F)F)c3)[C@H](c3ccc(F)cc3)C2)CCC1=O | 0.13 nM |  | 67% |  |
| C[C@@H](O[C@@H]1CN(C(=O)[C@@H]2CCC(=O)N2C)C[C@H]1c1ccc(F)cc1)c1cc(C(F)(F)F)cc(C(F)(F)F)c1 | 0.12 nM |  | 100% | ED50 (Gerbillinae [4]): 0.6 mg/kg; ED50 (Gerbillinae [5]): 1.2 mg/kg |
| C[C@@H](O[C@@H]1CN(C(=O)NCc2cnn[nH]2)C[C@H]1c1ccc(F)cc1)c1cc(C(F)(F)F)cc(C(F)(F)F)c1 | 0.58 nM |  | 24% |  |
| C[C@@H](O[C@@H]1CN(C(=O)N2CCOCC2)C[C@H]1c1ccccc1)c1cc(C(F)(F)F)cc(C(F)(F)F)c1 | 0.16 nM |  |  | inhibition in vivo at 1 mg/kg (Gerbillinae [6]): 40% |
| C[C@@H](O[C@@H]1CN(C2=CC(=O)N(C)C2)C[C@H]1c1ccc(F)cc1)c1cc(C(F)(F)F)cc(C(F)(F)F)c1 | 0.12 nM |  | 8% |  |
| CC(=O)N1C[C@@H](O[C@H](C)c2cc(C(F)(F)F)cc(C(F)(F)F)c2)[C@H](c2ccccc2)C1 | 0.09 nM | 98% |  | ED50 (Gerbillinae [4]): 0.6 mg/kg; ED50 (Gerbillinae [5]): 3.2 mg/kg |
| C[C@@H](O[C@@H]1CN(C(=O)C(C)(C)C)C[C@H]1c1ccccc1)c1cc(C(F)(F)F)cc(C(F)(F)F)c1 | 0.18 nM | 45% |  |  |
| CCC(=O)N1C[C@@H](O[C@H](C)c2cc(C(F)(F)F)cc(C(F)(F)F)c2)[C@H](c2ccc(F)cc2)C1 | 0.09 nM | 0% |  |  |
| CC(=O)N1CCC(C(=O)N2C[C@@H](O[C@H](C)c3cc(C(F)(F)F)cc(C(F)(F)F)c3)[C@H](c3ccc(F)cc3)C2)CC1 | 0.07 nM |  | 50% |  |
| CC(=O)N1C[C@@H](O[C@@H](C)c2cc(C(F)(F)F)cc(C(F)(F)F)c2)[C@H](c2ccccc2)C1 |  |  |  | inhibition (Substance-P receptor [7]): 18% |
| C[C@@H](O[C@@H]1CN(C2=CC(=O)CC(C)(C)C2)C[C@H]1c1ccccc1)c1cc(C(F)(F)F)cc(C(F)(F)F)c1 | 0.13 nM |  | 5% |  |
| CC1CC(N2C[C@@H](O[C@H](C)c3cc(C(F)(F)F)cc(C(F)(F)F)c3)[C@H](c3ccc(F)cc3)C2)=CC1=O (stereo in doubt) | 0.09 nM |  |  | Inhibition (Gerbillinae [3]; 3 mg/kg): 2% |
| C[C@@H](O[C@@H]1CN(C(=O)N2CCn3c(nnc3C(F)(F)F)C2)C[C@H]1c1ccc(F)cc1)c1cc(C(F)(F)F)cc(C(F)(F)F)c1 | 0.47 nM |  | 66% |  |
| C[C@@H](O[C@@H]1CN(C(=O)NC(C)(C)C)C[C@H]1c1ccc(F)cc1)c1cc(C(F)(F)F)cc(C(F)(F)F)c1 | 0.14 nM | 6% |  | inhibition in vivo at 1 mg/kg (Gerbillinae [6]): 28% |
